Patent publication US20240408169A1 (priority 2023, published 2024)
Where two headings read alike, the source gives them in different places. *1 amine or outer side, *2 acyl side, *3 side chain or, on linkers, in order; H or OH if unused. Where a SMILES comes first, the peptide text is derived from it. Bridges are numbered along the chain shown (N, C = ends). [ ]: non-standard residue; d: D form. The star is where a group is joined. X3 = COCCOCCN1CCN(c2ccc(-c3ccc(Cl)cc3C[C@@H](C(=O)[*:2])N(C)[*:1])cc2)CC1; X80 = CN1CC=C(c2ccc(-c3ccc(Cl)cc3C[C@@H](C(=O)[*:2])N(C)[*:1])cc2)CC1; X71 = CN([C@@H](Cc1cc(Cl)ccc1-c1ccc(N2CCOCC2)c(F)c1)C(=O)[*:2])[*:1]; X111 = CN([C@@H](Cc1cc(Cl)ccc1-c1nnc(C2CC2)o1)C(=O)[*:2])[*:1]; NMehhhLys(Me) = CN([C@@H](CCCCCCCN(C)[*:3])C(=O)[*:2])[*:1]; X112 = CN([C@@H](Cc1cc(F)ccc1-c1cnn(C)c1)C(=O)[*:2])[*:1]; X22 = CN([C@@H](Cc1cc(Cl)ccc1-c1cnn(C)c1)C(=O)[*:2])[*:1]; Oxane2carbonyl(2R-CF3) = O=C([C@@]1(C(F)(F)F)CCCCO1)*; Cyclobutanecarbonyl(1-CF3) = O=C(C1(C(F)(F)F)CCC1)*; cBuCO(3,3-F2-1-CF3) = O=C(C1(C(F)(F)F)CC(F)(F)C1)*; X25 = CCOc1ncc(Cl)cc1C[C@@H](C(=O)[*:2])N(C)[*:1]; Pro(trans-4-F) = O=C(O)[C@@H]1C[C@@H](F)CN1; Gly(cPr) = N[C@H](C(=O)O)C1CC1

Columns and labels:
[1] = tested on: OVCAR3 cells; experiment: MTT proliferation assay, OVCAR3; format: cell-based; conditions: 5 days compound exposure, 1:3 serial dilution starting at 10 μM;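 also: compound given as an 8- or 10-point series, one day after plating, with exposure covering roughly 3-4 cell doublings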
[2] = biological target: T1, CyclinB1/CDK1 (Homo sapiens, UniProt P14635); experiment: Fluorescence Polarization (FP) competitive binding assay, Cyclin B1/Cdk1;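 also: fluorescence polarization read after equilibration at room temperature, with IC50 taken from serially diluted dose-response curves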
T1 construct: purchased Eurofins, discovery 14-450

[3] = biological target: T2, CyclinE1/CDK2 (Homo sapiens, UniProt P24864); experiment: Fluorescence Polarization (FP) competitive binding assay, Cyclin E1/Cdk2;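 also: readings taken after two-hour equilibration at room temperature in HEPES buffer with NaCl, DTT, NP-40 and BSA, IC50 fitted from eight-concentration serial dilution series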
T2 construct: purchased Eurofins, discovery 14-475

[4] = tested on: NCI-H1048 cells; experiment: MTT proliferation assay, NCI-H1048; format: cell-based; conditions: 5 days compound exposure, 1:3 serial dilution starting at 10 μM;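 also: Dose-response in 96-well plates over 8 or 10 concentration points, with exposure spanning 3-4 cell doublings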
[5] = tested on: WI-38 cells; experiment: MTT proliferation assay, WI-38; format: cell-based; conditions: 3 days compound exposure, 1:3 serial dilution starting at 10 μM;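 also: Eight- or ten-point dilution series, with exposure length chosen to span about three to four cell doublings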
[6] = biological target: T3, CyclinA2/CDK2 (Homo sapiens, UniProt P20248); experiment: Fluorescence Polarization (FP) competitive binding assay, Cyclin A2/Cdk2;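 also: plates equilibrated two hours at room temperature before polarization reading, IC50 fitted from eight-concentration compound titration curves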
T3 construct: purchased CRELUX Protein Services

[7] = 10 nM Cyclin B1/Cdk1, 2 nM FAM probe; average of 2-3 independent experiments; read-out: Cyclin B FP IC50
[8] = 10 nM Cyclin E1/Cdk2, 2 nM FAM probe, average of 2-3 independent experiments, read-out: Cyclin E FP IC50
[9] = 8 nM Cyclin A2/Cdk2, 2 nM FAM probe; average of 2-3 independent experiments; read-out: Cyclin A FP IC50
[10] = read-out: Cyclin B FP IC50; 10 nM Cyclin B1/Cdk1, 2 nM FAM probe; average of 2-3 independent experiments
[11] = read-out: Cyclin A FP IC50; 8 nM Cyclin A2/Cdk2, 2 nM FAM probe; average of 2-3 independent experiments

Compound `CC(=O)N1[C@H]2CC[C@@H]1C=C(c1ccc(Cl)cc1C[C@H]1C(=O)N(C)CCCCCCC[C@H](N(C)C(=O)[C@@H](NC(=O)[C@@H]3C[C@@H](F)CN3C(=O)C3(C(F)(F)F)CC(F)(F)C3)C3CC3)C(=O)N[C@@H](CC(C)C)C(=O)N1C)C2` (single isomer, unassigned) [Example 57-P2] has a GI50 [1] of 10 nM, an IC50 [2, 7] of 20 nM and an IC50 [3, 8] of 1310 nM. The GI50 [4] was 10 nM, the GI50 [5] was 16900 nM and the IC50 [6, 9] was 20 nM.
Work on `CC(C)C[C@@H]1NC(=O)[C@@H](N(C)C(=O)[C@@H](NC(=O)[C@@H]2C[C@@H](F)CN2C(=O)C2(C(F)(F)F)CC(F)(F)C2)C2CC2)CCCCCCCN(C)C(=O)[C@H](Cc2cc(Cl)ccc2-c2ccc(C3=CCN(C)CC3)cc2)N(C)C1=O` [Example 351] ({cBuCO(3,3-F2-1-CF3)}-[Pro(trans-4-F)][Gly(cPr)][NMehhhLys(Me)]L[X80]; lactam 3-C) yielded a GI50 [1] of 10 nM, an IC50 [2, 7] of 20 nM and an IC50 [3, 8] of 970 nM. The GI50 [4] was 10 nM, the GI50 [5] was 1780 nM and the IC50 [6, 9] was 20 nM.
With `CC(C)C[C@@H]1NC(=O)[C@@H](N(C)C(=O)[C@@H](NC(=O)[C@@H]2C[C@@H](F)CN2C(=O)C2(C(F)(F)F)CC(F)(F)C2)C2CC2)CCCCCCCN(C)C(=O)[C@H](Cc2cc(Cl)ccc2-c2ccc(N3CCOCC3)c(F)c2)N(C)C1=O` [Example 348] ({cBuCO(3,3-F2-1-CF3)}-[Pro(trans-4-F)][Gly(cPr)][NMehhhLys(Me)]L[X71]; lactam 3-C) the GI50 [1] was 10 nM, the IC50 [2, 7] was 20 nM and the IC50 [3, 8] was 880 nM. For the same compound, the GI50 [4] was 10 nM, the GI50 [5] was 18000 nM and the IC50 [6, 9] was 20 nM.
`CC(C)C[C@@H]1NC(=O)[C@@H](N(C)C(=O)[C@@H](NC(=O)[C@@H]2C[C@@H](F)CN2C(=O)C2(C(F)(F)F)CCC2)C2CC2)CCCCCCCN(C)C(=O)[C@H](Cc2cc(F)ccc2-c2cnn(C)c2)N(C)C1=O` [Example 69] ({Cyclobutanecarbonyl(1-CF3)}-[Pro(trans-4-F)][Gly(cPr)][NMehhhLys(Me)]L[X112]; lactam 3-C) gave a GI50 [1] of 10 nM, an IC50 [2, 7] of 20 nM and an IC50 [3, 8] of 110 nM. It also gave a GI50 [4] of 10 nM, a GI50 [5] of 17600 nM and an IC50 [6, 9] of 20 nM.
`CC(C)C[C@@H]1NC(=O)[C@@H](N(C)C(=O)[C@@H](NC(=O)[C@@H]2C[C@@H](F)CN2C(=O)[C@@]2(C(F)(F)F)CCCCO2)C2CC2)CCCCCCCN(C)C(=O)[C@H](Cc2cc(Cl)ccc2-c2cnn(C)c2)N(C)C1=O` [Example 184] ({Oxane2carbonyl(2R-CF3)}-[Pro(trans-4-F)][Gly(cPr)][NMehhhLys(Me)]L[X22]; lactam 3-C) gave a GI50 [1] of 10 nM, an IC50 [2, 7] of 20 nM and an IC50 [3, 8] of 100 nM. For the same compound, the GI50 [4] was 10 nM, the GI50 [5] was 3650 nM and the IC50 [6, 9] was 20 nM.
In the case of `CCOc1ncc(Cl)cc1C[C@H]1C(=O)N(C)CCCCCCC[C@H](N(C)C(=O)[C@@H](NC(=O)[C@@H]2C[C@@H](F)CN2C(=O)[C@@]2(C(F)(F)F)CCCCO2)C2CC2)C(=O)N[C@@H](CC(C)C)C(=O)N1C` [Example 226] ({Oxane2carbonyl(2R-CF3)}-[Pro(trans-4-F)][Gly(cPr)][NMehhhLys(Me)]L[X25]; lactam 3-C), the GI50 [1] is reported as 30 nM, the IC50 [2, 10] is reported as 20 nM and the IC50 [3] is reported as 100 nM. It also gave a GI50 [4] of 20 nM, a GI50 [5] of 8390 nM and an IC50 [6, 11] of 20 nM.
`CC(C)C[C@@H]1NC(=O)[C@@H](N(C)C(=O)[C@@H](NC(=O)[C@@H]2C[C@@H](F)CN2C(=O)C2(C(F)(F)F)CC(F)(F)C2)C2CC2)CCCCCCCN(C)C(=O)[C@H](Cc2cc(Cl)ccc2-c2nnc(C3CC3)o2)N(C)C1=O` [Example 240] ({cBuCO(3,3-F2-1-CF3)}-[Pro(trans-4-F)][Gly(cPr)][NMehhhLys(Me)]L[X111]; lactam 3-C) gave a GI50 [1] of 10 nM, an IC50 [2, 10] of 20 nM and an IC50 [3] of 140 nM. It also gave a GI50 [4] of 10 nM, a GI50 [5] of 8730 nM and an IC50 [6, 11] of 20 nM.
Compound `COCCOCCN1CCN(c2ccc(-c3ccc(Cl)cc3C[C@H]3C(=O)N(C)CCCCCCC[C@H](N(C)C(=O)[C@@H](NC(=O)[C@@H]4C[C@@H](F)CN4C(=O)C4(C(F)(F)F)CC(F)(F)C4)C4CC4)C(=O)N[C@@H](CC(C)C)C(=O)N3C)cc2)CC1` [Example 356] ({cBuCO(3,3-F2-1-CF3)}-[Pro(trans-4-F)][Gly(cPr)][NMehhhLys(Me)]L[X3]; lactam 3-C) has a GI50 [1] of 10 nM, an IC50 [2, 7] of 20 nM and an IC50 [3, 8] of 340 nM. For the same compound, the GI50 [4] was 10 nM, the GI50 [5] was 3430 nM and the IC50 [6, 9] was 20 nM.
